Reference: patent US9205091B2, “Diazeniumdiolated compounds, pharmaceutical compositions, and method of treating cancer” (The United States of America, as represented by the …, priority 2009, dated 2015)

Experiments:
[1] = test system: H1944 cells; assay: Total glutathione / GSSG content after JS-K treatment; format: cell-based, human; details: JS-K 10 μM, 1 h
Protocol: (§1) H1703 or H1944 cells are plated in 6-well plates at 6×10^5 per well. Cells are treated with JS-K for 1 h at 1 μM (H1703) or 10 μM (H1944). After treatment, cells are washed with PBS, scraped into PBS and collected by centrifugation at 800 g for 10 min. The pellets are resuspended in 80 μL of 10 mM HCl and lysed by two successive rounds of freeze and thawing. Twenty μL of a 5% 5-sulfosalicylic acid solution is added to the lysate. The precipitate is removed by centrifugation at 8,000 g for 10 min, and the supernatant is analyzed for total glutathione content using total glutathione quantification kit (Dojindo, Rockville, Md.) according to the manufacturer's protocol. To measure GSSG concentration, cells are treated and lysed in accordance with the procedure above. The lysate is then neutralized with 0.1 M NaOH and treated with 4-vinylpyridine at a final concentration of 50 mM for 30 min.

[2] = test system: H1703 cells; assay: as above; format: cell-based, human; details: JS-K 1 μM, 1 h
Protocol: as §1

[3] = Body weight of xenograft mice, JS-K (Example 3); format: in vivo; details: 6 μmol/kg i.v., three times a week for three weeks
Protocol: (§2) H1944 or H1703 cells are injected at 5×10^6 s.c. into a flank of 7-week-old female athymic NCr-nu/nu mice (Charles River, Wilmington, Mass.). The drug injections are initiated when the tumors reached 2×2×2 mm (typically 3-4 weeks). JS-K is formulated in Pluronic P123 (P123) (BASF, Florham Park, N.J.) micelles. Animals are treated three times a week for three weeks with i.v. tail vein injections of either vehicle (2.25% P123 in PBS) or JS-K (6 μmol/kg in the vehicle). Tumors are measured using a caliper twice a week, and the tumor volumes are calculated using a formula for ellipsoid volume, π/6×L×W×H (Tomayko and Reynolds, 1989). The non-parametric Mann-Whitney test is utilized for statistical comparisons of tumor volumes at each time point. Body weights are taken before each drug injection. Animals are sacrificed 2 h after the last drug injection. Blood is collected by cardiac puncture under isoflurane anesthesia, for testing for cytokines. Cytokines in serum are measured using a mouse Th1/2 multiplex assay (Meso Scale Discovery, Gaithersburg, Md.), according to the manufacturer's protocol. There were 9-13 mice/group at termination.

[4] = test system: H1944 cells; assay: Intracellular nitric oxide, DAF-FM diacetate; format: cell-based, human; details: 1 μM, up to 60 min
Protocol: (§3) Cells growing on 6-well plates are loaded with 2.5 μM DAF-FM diacetate in HBSS at 37° C. and 5% CO2. After 30 min of incubation the cells are rinsed with HBSS to remove excess probe, and JS-K in fresh HBSS is added to the cells at 1 μM final concentration. After 30 or 60 min incubation the fluorescence of the benzotriazole derivative formed on DAF-FM's reaction with aerobic NO is analyzed using a Perkin Elmer LS50B luminescence spectrometer with the excitation source at 495 nm and emission at 515 nm. All experiments are performed at least three times, each time in triplicate.

[5] = test system: H1703 cells; assay: Intracellular nitric oxide, DAF-FM diacetate; format: cell-based, human; details: 1 μM, up to 60 min
Protocol: as §3

[6] = test system: NSCLC cell lines; assay: MTT proliferation assay, JS-K, NSCLC panel summary; format: cell-based, human; details: six cell lines; read-out: IC50 range of the sensitive cell lines
Protocol: JS-K is synthesized as described previously (Saavedra et al., J. Org. Chem., 66: 3090-3098(2001)). Cell lines are obtained from the American Type Culture Collection (Manassas, Va.) and cultured according to the supplier's protocol. For proliferation assays cells are seeded at 2×10^4 per well in 96-well plates and allowed to adhere for 24 h. JS-K is prepared as 10 mM stock solution in DMSO. Increasing drug concentrations in 10 μL of PBS are added to 100 μL of the culture medium for 48 h. MTT assay (Promega, Madison, Wis.) is performed according to the manufacturer's protocol. Each concentration is represented in six repeats, and the screening is performed as at least two independent experiments. IC50 values are calculated using Sigma Plot software (Systat Software, Chicago, Ill.).

[7] = test system: H1944 cells; assay: Intracellular ROS/RNS, CM-H2DCF-DA (DCF fluorescence); format: cell-based, human; details: up to 60 min
Protocol: (§4) Intracellular level of reactive oxygen/nitrogen species is quantified by the oxidation of the ROS/RNS-sensitive fluorophore 5-(and-6)-chloromethyl-2′,7′-dichlorodihydrofluorescein diacetate (CM-H2DCF-DA) (Invitrogen, Carlsbad, Calif.). Cells growing on 6-well plates (6×10^5/well) are loaded with 5 μM CM-H2DCF-DA in Hanks' balanced salt solution (HBSS) at 37° C. and 5% CO2. After 30 min of incubation, HBSS containing the probe is removed, cells are rinsed with HBSS and 3 mL of fresh HBSS is added to each well followed by addition of JS-K or DMSO as a control. After 30 min or 60 min the cells are collected by scraping in HBSS and 2′,7′-dichlorofluorescein (DCF) fluorescence is measured using a Perkin Elmer LS50B luminescence spectrometer with the excitation source at 488 nm and emission at 530 nm.

[8] = test system: H1703 cells; assay: as above; format: cell-based, human; details: up to 60 min
Protocol: as §4

[9] = test system: IL-1β, IL-2, IL-4, IL-5, IL-10, IL-12t, IFNγ or TNFα; assay: Serum cytokines, mouse Th1/2 multiplex assay; format: in vivo, mice; details: serum at termination; 6 μmol/kg i.v., three times a week for three weeks
Protocol: as §2

[10] = test system: MnSOD; assay: Anti-nitrotyrosine immunoprecipitation, anti-MnSOD immunoblot; format: cell-based, human; details: H1703 cells, 1 h
Protocol: For immunoprecipitation, 300 μg of the cell lysate is incubated on the rotator overnight at 4° C. with 2 μg of anti-nitrotyrosine mAb and 30 μL of protein G agarose. After washing three times with lysis buffer, the beads are suspended in 30 μL of 2×NuPAGE (Invitrogen, Carlsbad, Calif.) loading buffer and heated for 10 min at 95° C. Immunoprecipitated material is resolved on SDS-PAGE followed by immunoblotting with anti-MnSOD antibody.
Western blot analysis is performed as previously described (Romanowska et al., Free Radical Biol. Med., 43:1145-1155 (2007)). Primary antibodies for caspases 3, 7, PARP and cleaved PARP, Bax, cytochrome c (Cell Signaling Technology, Danvers, Mass.), peroxiredoxins 1-6 (LabFrontier, Seoul, Korea), and nitrotyrosine and MnSOD (Millipore, Billerica, Mass.) are used.

Compound: CCOC(=O)N1CCN(/[N+]([O-])=N/Oc2ccc([N+](=O)[O-])cc2[N+](=O)[O-])CC1 [Compound 1]
- GSH μmol/mg protein [1]: 0.13 μmol/mg protein
- GSSG μmol/mg protein [1]: 0.014 μmol/mg protein
- GSH μmol/mg protein [2]: 1.27 μmol/mg protein
- GSSG μmol/mg protein [2]: 0.042 μmol/mg protein
- effect on body weight [3]: did not affect body weight
- intracellular NO [4]: increase
- intracellular NO [5]: increase
- IC50 [6]: 330 to 1010 nM
- DCF-reactive material [7]: not
- DCF-reactive material [8]: increase
- serum cytokine levels, treated vs control groups [9]: no significant differences
- nitrotyrosine level in MnSOD [10]: increase
